The source of these data is ChEMBL document CHEMBL3507680, “University of Dundee, Gates Library screen for HepG2 cell viability”.

The nature of the data set: Human HepG2 cell viability assay in 384 well format. It counts as toxicity, cell-based. Details: dose 125 nL, time 70.5 hour; concentration not given beside the values. The conditions noted are these: HepG2 cells, read-out: Inhibition.

For `CN(Cc1ccccc1)C(=O)CN1CCOC(Cn2cncn2)C1` (stereo not drawn), the cytotoxicity at 70.5 h is -6.53%. For the compound `CCCNC(=O)C1CCCN(Cc2csc(C(C)(C)C)n2)C1` (stereo not drawn), the cytotoxicity at 70.5 h was 17.8%. The same measure for `COCCCN1CCCC1c1noc(C2CC2)n1` (stereo not drawn): 23.8%; for `c1ccc(Cc2nnc(CN3CCOC(Cn4cccn4)C3)o2)cc1` (stereo not drawn): 0.701%. The same measure for `CCn1cc(NC(=O)NCC(C)N(C)C2CC2)cn1` (stereo not drawn): -4.71%; for `CCc1n[nH]c(C2CN(Cc3nnc(C4CCC4)o3)CCO2)n1` (stereo not drawn): -7.61%; for `CCN1CCN(C2CCN(Cc3nc(C)c(C)o3)CC2)C1=O`: -3.68%.

On to `Clc1snnc1CN1CCCCC1Cn1cccn1` (stereo not drawn), for which the cytotoxicity at 70.5 h worked out at 26.2%.

Consider `c1ncn(CC2CCCCN2Cc2csc(-c3ccsc3)n2)n1` (stereo not drawn), for which the cytotoxicity at 70.5 h is -7.71%. The result for `COCc1nc(CN(CC(N)=O)C(C)C)cs1` reads -3.43%; that for `CCc1n[nH]c(C2CN(Cc3nnc(C4CC4)o3)CCO2)n1` (stereo not drawn), -1.31%; that for `Cc1nc(C)n(C2CCCN(C(=O)c3sccc3C)C2)n1` (stereo not drawn), -5.74%. The same measure for `COc1cc(C)sc1C(=O)N1CCCC(n2nc(C)nc2C)C1` (stereo not drawn): 21.7%. The result for `CCCc1n[nH]c(C2CN(Cc3nnc(C4CCC4)o3)CCO2)n1` (stereo not drawn) reads -5.35%.

Turning to `CC(NC(=O)NCCCc1n[nH]c(N)c1C#N)c1ccc(F)cc1` (stereo not drawn), the cytotoxicity at 70.5 h is -6.13%. The same measure for `CCOc1ncccc1CNC(=O)NCC(O)c1ccccc1OC` (stereo not drawn): -1.39%. The result for `Cn1c(NCC(O)c2ccc(F)c(F)c2)c(C#N)c(=O)n(C)c1=O` (stereo not drawn) reads 1.75%; that for `COc1ccccc1C(O)CNC(=O)Nc1ccccn1` (stereo not drawn), -5.18%; that for `COc1cc(C(=O)Nc2nc(C)no2)cc(Cl)c1OC`, -3.51%. The same measure for `CCc1nc(CN(C)CC(N)=O)cs1`: -4.25%; for `COc1ccc(OC)c(C(O)CNC(=O)Nc2cccnc2OC)c1` (stereo not drawn): -6.93%. Turning to `COc1ccccc1C(O)CNC(=O)Nc1cccnc1OC` (stereo not drawn), the cytotoxicity at 70.5 h is -3.1%. The result for `COc1ccccc1C(O)CNc1c(C#N)c(=O)n(C)c(=O)n1C` (stereo not drawn) reads -0.895%. For `CC(C)c1nc(CN(CC(N)=O)C(C)C)cs1`, the cytotoxicity at 70.5 h was -2.05%.

Consider `CN(C)C(=O)C1CCN(Cc2csc(C(C)(C)C)n2)CC1`, for which the cytotoxicity at 70.5 h turned out to be 18%. The result for `c1ncn(CC2CCCN2Cc2csc(C3CCCCC3)n2)n1` (stereo not drawn) reads 1.84%; that for `Clc1snnc1CN1CCCC1Cn1cccn1` (stereo not drawn), -1.24%; that for `COc1ccsc1C(=O)N1CCCC(n2nc(C)cc2C)C1` (stereo not drawn), -3.66%. The result for `Cc1nc(CN2CCC(N3CCN(C)C3=O)CC2)no1` reads 18%; that for `COc1cc(Cl)ccc1C(=O)N1CCCC(n2nc(C)nc2C)C1` (stereo not drawn), -0.226%; that for `COc1ccsc1C(=O)N1CCCC(n2cncn2)C1` (stereo not drawn), -2.59%. The same measure for `CC(C)(C)c1n[nH]c(C2CN(Cc3nnc(C4CC4)o3)CCO2)n1` (stereo not drawn): -6.03%. As for `CCc1nc(CN(C(C)=O)C2CCN(Cc3ccccc3F)C2)no1` (stereo not drawn), the cytotoxicity at 70.5 h is -7.96%. `COc1ccccc1OCCNC1CCCN(Cc2noc(C)n2)C1` (stereo not drawn): the cytotoxicity at 70.5 h was found to be 31.2%. With `CCc1nc(CN(C(C)=O)C2CCN(CC3CCOCC3)C2)no1` (stereo not drawn), the cytotoxicity at 70.5 h is -9.95%. The result for `COc1ccc(CCNC2CCCN(Cc3noc(C)n3)C2)cc1` (stereo not drawn) reads -14%.

As for `O=C1C(NS(=O)(=O)c2ccc(F)cc2)CCN1Cc1ccccc1` (stereo not drawn), the cytotoxicity at 70.5 h is -13.4%. The same measure for `COc1ccc(C2=CCN(C(=O)CN(C)S(C)(=O)=O)CC2)cc1`: -10.2%; for `COc1ccc(C2=CCN(C(=O)CN(CC(N)=O)C(C)C)CC2)cc1`: -4.3%; for `Cc1cc(CN2CCN(CC(O)c3ccc4c(c3)OCO4)CC2)no1` (stereo not drawn): -10.8%.

In the case of `Cc1nc(C)n(CC2CCCN2CCOc2ccccc2C#N)n1` (stereo not drawn), the cytotoxicity at 70.5 h is -13.6%.

Take `Cc1cc(CN2CCN(CC(O)c3ccc(C)c(C)c3)CC2)no1` (stereo not drawn): the cytotoxicity at 70.5 h was -7.74%. For the compound `Cc1ccc(S(=O)(=O)NC(=O)COc2cccc(C(N)=O)c2)s1`, the cytotoxicity at 70.5 h is -10.7%.

Regarding `Cc1nc(C)n(CC2CCCN2CCCOc2ccc(C#N)cc2)n1` (stereo not drawn), the cytotoxicity at 70.5 h was -4.85%. The result for `Cc1nc(C)n(CC2CCCN2CCOc2ccc(F)cc2)n1` (stereo not drawn) reads -9.83%; that for `Cc1nc(CN2CCCC(NCCOc3ccccc3C#N)C2)no1` (stereo not drawn), -2.51%. As to `Cc1cc(C)n(C2CCCN(C(=O)Cc3cccs3)C2)n1` (stereo not drawn), the cytotoxicity at 70.5 h was determined as 11%.

`CN1CCOC(CNCc2coc(-c3ccccc3Cl)n2)C1` (stereo not drawn): the cytotoxicity at 70.5 h is 1.39%.

As for `CCN(CC1CCCO1)C(=O)Nc1cc(C)ccc1S(C)(=O)=O` (stereo not drawn), the cytotoxicity at 70.5 h is -1.66%. The result for `O=C(Cc1cccnc1)N1CCCC(n2cncn2)C1` (stereo not drawn) reads -1.4%; that for `COCCOc1cccc(CNCC2CN(C)CCO2)c1` (stereo not drawn), -0.0199%; that for `CN1CCOC(CNCc2ccc(OCc3ccccn3)cc2)C1` (stereo not drawn), -6.69%.

For the compound `Cc1cc(NC(=O)NCC(c2ccccc2)N2CCOCC2)n(C)n1` (stereo not drawn), the cytotoxicity at 70.5 h was -3.59%. Regarding `Cc1nc(CSCCC(=O)NCc2ccc(N(C)C)cc2)cs1`, the cytotoxicity at 70.5 h is -3.76%. `Cc1cc(NC(=O)NCC(CC(C)C)N2CCOCC2)n(C)n1` (stereo not drawn): the cytotoxicity at 70.5 h worked out at 2.74%.

As for `CCOc1ccc(C#N)cc1NCC(=O)NC1(C#N)CCCC1`, the cytotoxicity at 70.5 h was -6.01%.

As to `CCNC(=O)NC(=O)CNc1cc(C#N)ccc1OCC`, the cytotoxicity at 70.5 h was -3.61%. The same measure for `COc1ccccc1CC(=O)N1CCC(NCc2cc[nH]c2)CC1`: 4.03%; for `CCC(C)(C)NC(=O)C1CC(=O)N(CC2CC2)C1` (stereo not drawn): 27.7%. The result for `COc1ccccc1CC(=O)N1CCC(NCc2c[nH]nc2C)CC1` reads 2.03%; that for `c1ccc(Cc2noc(CNC3CCc4ncnn4C3)n2)cc1` (stereo not drawn), -5.32%; that for `COc1c(CNC2CCOc3ccccc32)c(C(C)C)nn1C` (stereo not drawn), -7.12%. The same measure for `CC(=O)NCC1CCN(C(=O)c2csc(-c3ccc(C)cc3C)n2)CC1`: -10.6%; for `CCc1nnsc1C(=O)NCCn1nc2ccccn2c1=O`: 31.6%. Consider `Cc1noc(C)c1C(=O)NCC(c1ccc(F)cc1)N(C)C` (stereo not drawn), for which the cytotoxicity at 70.5 h was -2.05%.

As for `NC(=O)C1CCN(CCc2ccc(NC(=O)C3CCC3)cc2)CC1`, the cytotoxicity at 70.5 h is -1.87%. The same measure for `COc1c(CNCCNC(=O)c2ccc(C)cc2)c(C)nn1C`: 8.52%. The result for `O=C(NCCNc1ncccn1)Nc1cc(C(F)(F)F)c[nH]c1=O` reads -3.37%; that for `O=c1[nH]c(CCN2CCCC(Cn3cncn3)C2)nc2ccccc12` (stereo not drawn), -0.545%; that for `CCOc1cc(C)nc(N2CCN(C(=O)CC)CC2)n1`, -8.45%. The result for `Cc1nccn1C1CCCN(C(=O)c2ccc3c(c2)COC3)C1` (stereo not drawn) reads -3.92%; that for `O=C(Nc1ccc(CCN2CCC(O)CC2)cc1)C1CCOCC1`, 9.76%; that for `Cc1noc(C)c1C(=O)NCC(O)c1ccc(F)cc1F` (stereo not drawn), 27.1%.

`Cc1cc(CN2CCCC2c2noc(C3CC3)n2)c2ccccc2n1` (stereo not drawn): the cytotoxicity at 70.5 h is 51.7%.

As for `Cc1nnc(NCc2ccccc2Cl)c(C#N)c1C`, the cytotoxicity at 70.5 h was -9.79%. On to `Cc1cc(C)n(CC2CCCN2C(=O)c2cnn(C)c2C2CC2)n1` (stereo not drawn), for which the cytotoxicity at 70.5 h was -11.8%. The same measure for `CC(C)C(C(=O)N1CCCN(Cc2nccn2C)CC1)N1CCCC1` (stereo not drawn): 30.4%. On to `CN(Cc1cccc(F)c1)C1CCN(CCc2ccccn2)CC1`, for which the cytotoxicity at 70.5 h was found to be 15.1%. The same measure for `Cc1ccc(-c2cc(CNC(=O)N3CCC(CO)CC3)on2)cc1`: 5.23%. The result for `Cc1nc(CNC(=O)NCC(O)c2ccc(F)c(F)c2)cs1` (stereo not drawn) reads 1.43%; that for `CCN1CCC(CNC(=O)NCc2cc(-c3ccc(C)cc3)no2)C1` (stereo not drawn), -1.11%; that for `COc1ccc(C(O)CNC(=O)NCc2csc(C)n2)cc1` (stereo not drawn), 27.2%. Take `CCC1CN(C(=O)Nc2cnc3c(cnn3C(C)C)c2)CCO1` (stereo not drawn): the cytotoxicity at 70.5 h was found to be 1.85%. The result for `COc1ccc(OCCCNC(=O)NCc2csc(C)n2)cc1` reads -7.03%.

As to `Cc1ccc(N2CCCN(C(=O)C(C(C)C)n3cncn3)CC2)nn1` (stereo not drawn), the cytotoxicity at 70.5 h was 1.73%. The result for `CS(=O)(=O)CCC(=O)Nc1cnn(-c2ccccc2Cl)c1` reads 2.48%; that for `Cc1[nH]ncc1C(=O)N1CCCC(c2cc(C(F)(F)F)[nH]n2)C1` (stereo not drawn), 5.58%.

Regarding `CCS(=O)(=O)c1ccccc1N1CCC(NC(=O)NC2CCCC2)CC1`, the cytotoxicity at 70.5 h is -14.2%. The result for `CN1CCN(C(=O)c2ccc(=O)n(C)c2)c2ccccc21` reads -1.74%; that for `O=C(NCCC(=O)N1CCCC1)c1nn(-c2ccccc2F)cc1O`, 35.9%; that for `CC(NC(=O)NCCCN1CCCCCC1)c1nncn1C` (stereo not drawn), 0.545%. The same measure for `CC(NC(=O)NCCN1CCCCCC1=O)c1nncn1C` (stereo not drawn): 7.16%. Consider `COCCCN(C)C1CCCN(Cc2noc(C)n2)C1` (stereo not drawn), for which the cytotoxicity at 70.5 h is 6.68%.

In the case of `N#Cc1ccc(F)c(CN2CCCC2Cn2cnc3ccccc32)c1` (stereo not drawn), the cytotoxicity at 70.5 h was determined as 7.39%. The same measure for `N#Cc1ccc(F)c(CN2CCCC2Cn2cccn2)c1` (stereo not drawn): -5.17%; for `COCCN1CCC(N(Cc2noc(C3CC3)n2)C(C)=O)C1` (stereo not drawn): 10.7%. The result for `CCc1nc(C2CCCN2C(=O)CCNS(C)(=O)=O)no1` (stereo not drawn) reads 0.333%; that for `Cc1nn(C)c(C)c1C1CCCN1Cc1nc(C2CC2)no1` (stereo not drawn), 36.6%; that for `O=C(c1cccc(Cn2ccnc2)c1)N1CCCC(n2ccnc2)C1` (stereo not drawn), -16.1%. For the compound `NC(=O)COc1cccc(C(=O)N2CCCC(n3cccn3)C2)c1` (stereo not drawn), the cytotoxicity at 70.5 h came to 28.9%. The result for `CC(C)c1ncc2c(n1)CN(Cc1nc(-c3cccs3)no1)CC2` reads -11.9%; that for `CC(NC(=O)CCc1cccs1)c1nnc2n1CCC2` (stereo not drawn), -36.3%; that for `CS(=O)(=O)N1CCC(C(=O)NCCNc2ncccn2)CC1`, -19.2%.
